# In paper PMC9820316, “Novel Arylpiperazine Derivatives of Salicylamide with α1-Adrenolytic Properties Showed Antiarrhythmic and Hypotensive Properties in Rats” (International Journal of Molecular Sciences, 2022):
# Marks after values point to notes of the source that are not given here.
# Assays:
# [1] = system: pressor response to methoxamine in rats; assay: Influence on blood vasopressor response to methoxamine in rats; assay type: in vivo, rat; conditions: 2.5 mg/kg iv, methoxamine 150 μg/kg before and 5 min after compound
# Procedure: The experiment was performed to establish the effect of the studied derivatives on the pressor response to methoxamine (150 µg/kg, iv), according to the methods described previously. Normotensive Wistar rats were anesthetized with thiopental (75 mg/kg ip). The right carotid artery was cannulated with a polyethylene tube filled with heparin solution using a Datamax apparatus (Columbus Instruments, Columbus, OH, USA). After a 15-min stabilization period, the pressor response to methoxamine before (control) and 5 min after the administration of the tested compounds was measured (Figure 4B). The tested compounds were administered at the lowest hypotensive dose.
# [2] = system: aconitine-induced arrhythmia model in rats; assay: Prophylactic antiarrhythmic activity in aconitine-induced arrhythmia; assay type: in vivo, rat; conditions: 5 mg/kg iv 15 min before aconitine 20 μg/kg; number of animals with event
# Procedure: (§1) The animals were anesthetized with thiopental (75 mg/kg ip). Depending on the model, either adrenaline, aconitine, or calcium chloride was used as an arrhythmogen. Adrenaline and aconitine were administered iv at a dose of 20 µg/kg, whereas calcium chloride was administered at a dose of 140 mg/kg to induce heart rhythm disturbances. The tested compounds were injected iv 15 min before the arrhythmogen. Aspel ASCARD apparatus (standard II lead, with the tape speed 50 mm/s and voltage calibration 1 mV = 1 cm) was used for ECG measurements. […] The ED50 was calculated using the method of Litchfield and Wilcoxon.
# normotensive rats = assay: Influence on blood pressure in the normotensive rats; assay type: in vivo, rat; conditions: for DBP—diastolic blood pressure / SBP—systolic blood pressure: mean ± SD
# Procedure: The experiment was performed according to the method described earlier. Normotensive Wistar rats were anesthetized with thiopental (75 mg/kg ip). The right carotid artery was cannulated with a polyethylene tube filled with heparin solution, using a Datamax apparatus (Columbus Instruments, Columbus, OH, USA). After 15 min of the stabilization period, the studied compounds were administered iv, and their effect on systolic and diastolic blood pressure was evaluated (Figure 4A).
# normal ECG in rats = assay: Effect on a normal electrocardiogram in rats; assay type: in vivo, rat; conditions: for HR—heart rate / PQ interval / QRS complex / QTc (Bazzett's formula) / decrease of the heart rate: 5 mg/kg iv; for HR—heart rate / PQ interval / QRS complex / QTc (Bazzett's formula): mean ± SD; for PQ interval / QRS complex / QTc (Bazzett's formula): in ms (unit assumed)
# Procedure: The procedure was performed to exclude the negative effects of the tested compounds on the normal ECG, according to the method described earlier. […] Firstly, animals were anesthetized with thiopental (75 mg/kg ip). […] The influence on PQ, QTc interval, QRS complex, and heart rate was evaluated. The Bazzett’s formula: QTc = QT/√RR was used to calculate QTc. All the studied compounds were administered at a dose of 5 mg/kg.
# [3] = system: adrenaline-induced arrhythmia model in rats; assay: Therapeutic antiarrhythmic activity in adrenaline-induced arrhythmia; conditions: 1 mg/kg iv immediately after adrenaline 20 µg/kg; number of animals with event
# Procedure: The experiments were carried out according to the method described by Szekeres and Papp [71]. The heart rhythm disturbances, such as extrasystoles, conduction blocks, and bradycardia, were induced by iv injection of adrenaline (20 µg/kg) to anesthetized rats (thiopental, 75 mg/kg, ip). […] The Aspel ASCARD apparatus (standard II lead, with a tape of speed 50 mm/s and voltage calibration of 1 mV = 1 cm) was used for the ECG measurements. The ECG was recorded during the first 2 min and in the 5th, 10th, and 15th min after the adrenaline injection (Figure 3B). The lack or decreased amount of extrasystoles, atrioventricular blocks, and bradycardia in the ECG recordings compared to the control group was the criterion of antiarrhythmic activity [72].
# Automated ECG waveform analysis was evaluated as described earlier [55], using Eleven Maze software version 0.1 from Eleven Products Sp. z o.o. […] The software, under expert supervision, recognized and classified the heart rhythm irregularities. It also calculated PQ, QRS, QTc, and rate parameters.
# [4] = system: adrenaline-induced arrhythmia model in rats; assay: Prophylactic antiarrhythmic activity in adrenaline-induced arrhythmia; assay type: in vivo, rat; conditions: for Blocks / Bradycardia / Extrasystoles / Mortality: number of animals with event
# Procedure: as §1
# α1-adrenergic receptors = assay: α1-adrenoceptor radioligand binding assay ([3H]-prazosin, rat cortex); conditions: rat cortex tissue, mean ± SEM
# Procedure: The α1- and α2-adrenoceptor radioligand binding assays were performed on the rat cerebral cortex using previously described methods. […] The brains were homogenized using the ULTRA-TURRAX homogenizer in 10 mL of an ice-cold 50 mM Tris-HCl buffer (pH 7.6). The homogenates were centrifuged at 20,000× g for 20 min (0–4 °C). Subsequently, the cell pellet was resuspended in the Tris–HCl buffer and centrifuged again. Radioligand binding assays were carried out in plates (MultiScreen/Millipore). The final incubation mixture, with a volume of 300 μL, consisted of 240 μL of the tissue suspension, 30 μL of the radioligand solution, and 30 μL of the buffer containing 7–8 concentrations of the studied compounds. In order to measure the unspecific binding, 10 μM phentolamine (for [^3H]-prazosin) or 10 μM clonidine (for [^3H]-clonidine) were utilized. The incubation was completed by rapid filtration through Whatman GF/C filters using a vacuum manifold (Millipore). The filters were then washed twice with the assay buffer and placed in scintillation vials with a liquid scintillation cocktail. Radioactivity was measured in a WALLAC 1409 DSA liquid scintillation counter (Perkin Elmer, USA). All the assays were performed in duplicates, and the inhibitory constants (Ki) were calculated.
# [5] = 1.0 mg/kg iv, 0 min (before administration)
# [6] = 2.5 mg/kg iv, 0 min (before administration)
# [7] = 0 min (prior to administration)
# [8] = 0.1 mg/kg iv 15 min before adrenaline 20 μg/kg
# [9] = 0.25 mg/kg iv 15 min before adrenaline 20 μg/kg
# [10] = 0.5 mg/kg iv 15 min before adrenaline 20 μg/kg
smiles,measurement,setting,value
"COc1ccccc1N1CCN(Cc2cccc(COc3ccccc3C(N)=O)c2)CC1.Cl [JJGW11, 2-[(3-{[4-(2-metoxyphenyl)piperazin-1-ylo]methyl}phenyl)metoxy}benzamide hydrochloride]",attenuation of the methoxamine pressor response,[1],99%
same,Blocks,[2],6/6
same,Bradycardia,[2],6/6
same,Extrasystoles,[2],5/6
same,Fibrillations,[2],4/6
same,Mortality,[2],6/6
same,DBP—diastolic blood pressure,normotensive rats; [5],86.8 ± 7.6 mmHg
same,SBP—systolic blood pressure,normotensive rats; [5],118.2 ± 9.7 mmHg
same,DBP—diastolic blood pressure,"normotensive rats; 1.0 mg/kg iv, 5 min",81.3 ± 14.4 mmHg
same,SBP—systolic blood pressure,"normotensive rats; 1.0 mg/kg iv, 5 min",116.2 ± 8.5 mmHg
same,DBP—diastolic blood pressure,"normotensive rats; 1.0 mg/kg iv, 10 min",82.0 ± 10.2 mmHg
same,SBP—systolic blood pressure,"normotensive rats; 1.0 mg/kg iv, 10 min",113.8 ± 9.2 mmHg
same,DBP—diastolic blood pressure,"normotensive rats; 1.0 mg/kg iv, 20 min",82.3 ± 8.8 mmHg
same,SBP—systolic blood pressure,"normotensive rats; 1.0 mg/kg iv, 20 min",111.5 ± 10.4 mmHg
same,DBP—diastolic blood pressure,"normotensive rats; 1.0 mg/kg iv, 30 min",83.0 ± 8.2 mmHg
same,SBP—systolic blood pressure,"normotensive rats; 1.0 mg/kg iv, 30 min",111.0 ± 10.8 mmHg
same,DBP—diastolic blood pressure,"normotensive rats; 1.0 mg/kg iv, 40 min",82.5 ± 8.4 mmHg
same,SBP—systolic blood pressure,"normotensive rats; 1.0 mg/kg iv, 40 min",110.0 ± 11.5 mmHg
same,DBP—diastolic blood pressure,"normotensive rats; 1.0 mg/kg iv, 50 min",81.7 ± 8.3 mmHg
same,SBP—systolic blood pressure,"normotensive rats; 1.0 mg/kg iv, 50 min",110.3 ± 10.7 mmHg
same,DBP—diastolic blood pressure,"normotensive rats; 1.0 mg/kg iv, 60 min",81.5 ± 8.4 mmHg
same,SBP—systolic blood pressure,"normotensive rats; 1.0 mg/kg iv, 60 min",110.8 ± 10.6 mmHg
same,DBP—diastolic blood pressure,normotensive rats; [6],88.7 ± 10.4 mmHg
same,SBP—systolic blood pressure,normotensive rats; [6],116.7 ± 8.1 mmHg
same,decrease of the diastolic blood pressure,"normotensive rats; 2.5 mg/kg iv, 60th min after administration",18%
same,DBP—diastolic blood pressure,"normotensive rats; 2.5 mg/kg iv, 5 min",84.7 ± 10.0 mmHg
same,SBP—systolic blood pressure,"normotensive rats; 2.5 mg/kg iv, 5 min",108.5 ± 8.7 ^b mmHg
same,DBP—diastolic blood pressure,"normotensive rats; 2.5 mg/kg iv, 10 min",81.2 ± 8.6 mmHg
same,SBP—systolic blood pressure,"normotensive rats; 2.5 mg/kg iv, 10 min",103.3 ± 9.5^c mmHg
same,DBP—diastolic blood pressure,"normotensive rats; 2.5 mg/kg iv, 20 min",78.5 ± 10.1 mmHg
same,SBP—systolic blood pressure,"normotensive rats; 2.5 mg/kg iv, 20 min",102.3 ± 10.0 ^c mmHg
same,DBP—diastolic blood pressure,"normotensive rats; 2.5 mg/kg iv, 30 min",77.3 ± 9.9 mmHg
same,SBP—systolic blood pressure,"normotensive rats; 2.5 mg/kg iv, 30 min",101.3 ± 9.2 ^b mmHg
same,DBP—diastolic blood pressure,"normotensive rats; 2.5 mg/kg iv, 40 min",79.2 ± 10.5 mmHg
same,SBP—systolic blood pressure,"normotensive rats; 2.5 mg/kg iv, 40 min",103.0 ± 10.3 ^a mmHg
same,DBP—diastolic blood pressure,"normotensive rats; 2.5 mg/kg iv, 50 min",77.7 ± 12.9 mmHg
same,SBP—systolic blood pressure,"normotensive rats; 2.5 mg/kg iv, 50 min",103.5 ± 12.9 ^b mmHg
same,DBP—diastolic blood pressure,"normotensive rats; 2.5 mg/kg iv, 60 min",73.0 ± 16.2 ^a mmHg
same,SBP—systolic blood pressure,"normotensive rats; 2.5 mg/kg iv, 60 min",100.2 ± 15.9 ^b mmHg
same,decrease of the systolic blood pressure,"normotensive rats; 2.5 mg/kg iv, between the 5th and 60th min after injection",7–14%
same,dose affecting the heart rate relative to the ED50 value in the adrenaline-induced arrhythmia model,normal ECG in rats; 5 mg/kg iv vs ED50,26 fold
same,HR—heart rate,normal ECG in rats; [7],281.3 ± 50.8
same,PQ interval,normal ECG in rats; [7],45.8 ± 7.2
same,QRS complex,normal ECG in rats; [7],38.5 ± 3.6
same,QTc (Bazzett's formula),normal ECG in rats; [7],188.2 ± 12.3
same,decrease of the heart rate,normal ECG in rats; 10th min after the injection,8%
same,decrease of the heart rate,normal ECG in rats; 15th min after the injection,10%
same,HR—heart rate,normal ECG in rats; 5 min,266.5 ± 58.2
same,PQ interval,normal ECG in rats; 5 min,47.1 ± 5.7
same,QRS complex,normal ECG in rats; 5 min,41.3 ± 3.0
same,QTc (Bazzett's formula),normal ECG in rats; 5 min,197.3 ± 18.6
same,HR—heart rate,normal ECG in rats; 10 min,258.8 ± 55.0
same,PQ interval,normal ECG in rats; 10 min,47.4 ± 5.0
same,QRS complex,normal ECG in rats; 10 min,42.4 ± 4.3
same,QTc (Bazzett's formula),normal ECG in rats; 10 min,193.6 ± 22.0
same,HR—heart rate,normal ECG in rats; 15 min,252.4 ± 50.3
same,PQ interval,normal ECG in rats; 15 min,47.6 ± 5.1
same,QRS complex,normal ECG in rats; 15 min,41.7 ± 5.4
same,QTc (Bazzett's formula),normal ECG in rats; 15 min,184.1 ± 16.9
same,Blocks,[3],2/5
same,Bradycardia,[3],1/5
same,Mortality,[3],0/5
same,Blocks,[4]; [8],4/5
same,Bradycardia,[4]; [8],2/5
same,Extrasystoles,[4]; [8],4/5
same,Mortality,[4]; [8],1/5
same,Blocks,[4]; [9],6/6
same,Bradycardia,[4]; [9],0/6
same,Extrasystoles,[4]; [9],6/6
same,Mortality,[4]; [9],0/6
same,Blocks,[4]; [10],1/6
same,Bradycardia,[4]; [10],2/6
same,Extrasystoles,[4]; [10],3/6
same,Mortality,[4]; [10],1/6
same,ED50,"[4]; prophylactic, iv 15 min before adrenaline 20 μg/kg, confidence limits in brackets (Litchfield and Wilcoxon)",0.19 (0.08–0.45) mg/kg
same,Adrenergic Receptors—pKi α1,α1-adrenergic receptors,8.07 ± 0.04
